Test results from paper PMC8665362, “Identification of small-molecule allosteric modulators that act as enhancers/disrupters of rhodopsin oligomerization” (The Journal of Biological Chemistry, 2021).
Marks after values point to notes of the source that are not given here.

Columns and labels:
[1] = biological target: T1, rhodopsin (isorhodopsin) dimerization (Homo sapiens, UniProt P08100); assay: rhodopsin β-gal fragment complementation assay in U2OS opsin-EA/opsin-PK cells; type: cell-based; design: expressed in transfected cells; settings: for EC50: U2OS opsin-EA/PK cells regenerated with 9-cis-retinal, triplicates, read from Fig. 3A,D
T1 sequence (P08100 whole entry, the tested form may be a part): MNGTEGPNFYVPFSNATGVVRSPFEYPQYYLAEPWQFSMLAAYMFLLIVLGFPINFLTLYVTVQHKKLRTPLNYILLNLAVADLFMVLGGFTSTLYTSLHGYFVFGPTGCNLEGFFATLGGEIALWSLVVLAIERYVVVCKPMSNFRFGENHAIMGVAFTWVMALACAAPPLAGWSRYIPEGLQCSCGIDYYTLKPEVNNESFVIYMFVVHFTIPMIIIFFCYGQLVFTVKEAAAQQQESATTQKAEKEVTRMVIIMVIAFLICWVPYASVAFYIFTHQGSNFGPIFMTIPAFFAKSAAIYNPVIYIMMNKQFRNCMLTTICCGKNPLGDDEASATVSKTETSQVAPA
Excerpt: (§1) To identify small molecules that target rhodopsin dimerization, a cell-based high-throughput screening (HTS) assay was used to screen a diverse library of 50,000 compounds from Life Chemicals. The human osteosarcoma (U2OS) stable cell line was used, which expresses opsin fused with complimentary subunits of β-galactosidase (β-gal), namely, the enzyme acceptor large β-gal subunit (EA) and the enzyme donor, small subunit of β-gal (PK). Upon rhodopsin self-association in vitro, a competent β-gal was formed and chemiluminescent signal was generated in the presence of β-gal substrate (Fig. 1A). For further validation, the β-gal activity assay was used to counter-screen and rule out false positives, affecting the activity of β-gal without affecting rhodopsin (Fig. 1B) ([34]). In an orthogonal assay, rhodopsin dimerization was assessed using a bioluminescence resonance energy transfer (BRET) assay with human embryonic kidney 293 cells expressing opsin fused with Renilla luciferase and opsin fused with Venus (Fig. 1C) ([35], [36]). To form functional visual pigment, opsin-fused proteins were regenerated with 9-cis-retinal to form so-called isorhodopsin ([37]). We chose 9-cis-retinal over photoreceptor-endogenous 11-cis-retinal because of its availability and the prohibitive cost for HTS assays with the native chromophore. Rhodopsin and isorhodopsin have similar biochemical and spectral properties (see ([38])).
All 50,000 compounds were screened, using the β-gal complementation assay at a final concentration of 60 μM with a Z′ factor of 0.75 ± 0.01 and a signal-to-background (S/B) ratio of 123 ± 14.4 (Fig. 2A) ([39]). The activity scores were calculated according to the following equation: (RLU(compound)−RLU(positivecontrol))/(RLU(negativecontrol)−RLU(positivecontrol))×100.
The positive control comprised U2OS cells transfected with both opsin-EA and opsin-PK, mimicking dimer formation (with a 0% score value), and the negative control comprised U2OS cells transfected with opsin-EA only, mimicking disrupted dimer formation (with a 100% score value).
In this study, cultured U2OS opsin-EA and opsin-PK cells were diluted to 2 × 10^5 cells/ml in the culture medium containing 10% fetal bovine serum (Thermo Fisher Scientific) and 1% penicillin-streptomycin 10,000 U/ml (Thermo Fisher Scientific). Cell diluent of 20 μl/well was dispensed into a white ViewPlate-384 (PerkinElmer) using the EL406 plate dispenser (BioTek). As a control, we used U2OS opsin-EA–only expressing cells as a positive control for dimerization disruption generating a minimal luminescence signal, as previously described ([41]). The plates were cultured overnight at 37 °C in 5% CO2, and the next day, under a dim red light, cells were treated with 5 μl/well of 9-cis-retinal (Sigma-Aldrich) at 7.5 μM final concentration. Plates were covered with aluminum foil and cultured overnight at 37 °C in 5% CO2. Next, cells were treated with each of the 50,000 library compounds (Life Chemicals Inc) at a final concentration of 57.6 μM, using a JANUS automated workstation (PerkinElmer), followed by incubation overnight at 37 °C, covered with aluminum foil. The next day, cells were treated with Galacton-Star chemiluminescent substrate (23 μl/well; Thermo Fisher Scientific). The plates were covered with foil and incubated at 20 °C for 2 h, followed by luminescence reading with the EnSpire multimode plate reader (PerkinElmer). Measurements were evaluated with the lowest value being defined as −50% (dimer enhancers) and the highest value as 100% (dimer disrupters) in the compound dataset. All experiments were done under red-light conditions. Identified compounds were retested in triplicates ranging from 180 μM down to 2.4 nM concentrations.

[2] = biological target: T1, rhodopsin (isorhodopsin) dimerization; assay: rhodopsin dimerization BRET assay in HEK293 opsin-Rluc/opsin-Venus cells; type: cell-based; design: expressed in transfected cells; host or cells: HEK293 (human embryonic kidney 293) opsin-Rluc / opsin-Venus cell lines; settings: for EC50: HEK293 opsin-Rluc/opsin-Venus cells regenerated with 9-cis-retinal, triplicates, read from Fig. 3B,E
Excerpt: as §1
Identified hits from the β-gal complementation assay were subjected to the previously developed BRET assay, using human embryonic kidney 293 opsin–Renilla luciferase and opsin-Venus cell lines ([37]). Cultured cells were diluted to 2 × 10^5 cells/ml in the medium containing 10% fetal bovine serum (Thermo Fisher Scientific) and 1% penicillin-streptomycin (10,000 U/ml; Thermo Fisher Scientific), and 20 μl/well of the cell diluent was dispensed into a white ViewPlate-384 (PerkinElmer). Cells were cultured overnight at 37 °C in 5% CO2, and under a dim red light, cells were treated with 9-cis-retinal at 7.5 μM final concentration. The next day, cells were treated with the identified hit compounds from the β-gal complementation assay at 180 μM down to 2.4 nM concentrations, and 1 μM final concentration of TM5 peptide ([…]-NH2; EZBiolab) serving as the control. On the following day, the culture medium was aspirated and replaced with 90 μl/well of PBS containing pivaloyloxymethyl acetoxycoelenterazine h (Dalton Research Molecules) at 600 μM concentration followed by incubation at 20 °C for 40 min ([35]). Dual luminescence readings at 480 and 530 nm were performed using a SpectraMax L plate reader with the BRET1 filter set (Molecular Devices).

[3] = biological target: T2, bovine rhodopsin (Bos taurus, UniProt P02699); assay: rhodopsin Meta II decay assay (Trp265 intrinsic fluorescence); settings: 100 μM compound; for Meta II decay rate (slope of intrinsic fluorescence over 150 s) relative to DMSO control: bleached rhodopsin, p < 0.0001
T2 construct: The washed ROS with isotonic and hypotonic buffers was used as described above; from tissue; host or cells: bovine rod outer segments (ROS)
T2 sequence (P02699 whole entry): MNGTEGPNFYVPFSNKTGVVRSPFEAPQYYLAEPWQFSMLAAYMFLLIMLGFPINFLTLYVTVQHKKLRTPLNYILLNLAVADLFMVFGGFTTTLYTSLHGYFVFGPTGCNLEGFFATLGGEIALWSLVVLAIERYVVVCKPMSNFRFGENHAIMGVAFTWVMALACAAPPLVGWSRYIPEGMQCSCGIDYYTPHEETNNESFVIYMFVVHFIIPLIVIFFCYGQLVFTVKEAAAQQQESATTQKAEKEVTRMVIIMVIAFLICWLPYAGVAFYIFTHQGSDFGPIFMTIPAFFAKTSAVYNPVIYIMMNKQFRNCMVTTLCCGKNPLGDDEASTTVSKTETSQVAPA
Protocol: However, oligomerization of isorhodopsin could affect the chromophore release from opsin. The chromophore release can be measured sensitively by the light-induced increase in intrinsic fluorescence of the Trp^265 residue that occurs upon release of the chromophore after illumination ([43]).
The washed ROS with isotonic and hypotonic buffers was used as described above. The solubilized rhodopsin at 1.05 mg/ml in 20 mM 1,3-bis(tris(hydroxymethyl)methylamino) propane, pH 6.9, 100 mM NaCl, and 1 mM LMNG buffer was incubated for 5 min at 20 °C with 0.7 μl of 100 mM stock solutions of the nine identified hit compounds (100 μM final concentration) in DMSO and centrifuged at 1000g for an additional 5 min. Next, photobleaching was carried out with a 150-W fiber light delivered through a 480 to 520 nm band pass filter (Chroma Technology) for 10 s. Samples were subjected to fluorescence measurements acquired through 150 s in triplicate. The results were analyzed with an L55 luminescence spectrophotometer (PerkinElmer) operating at excitation and emission wavelengths of 300 nm and 335 nm, respectively.

[4] = system: rod photoreceptors of isolated mouse retinas; assay: ex vivo ERG of isolated mouse retinas (rod light responses); type: cell-based, mouse (C57BL/6J); settings: 250 μM compound
Excerpt: We determined the impact of compound #7 (representative disrupter of rhodopsin dimerization) and compound #1 (representative enhancer) on the sensitivity and kinetics of rod light responses, using ex vivo electroretinogram (ERG) analysis of isolated mouse retinas (Experimental procedures). This technique allows robust recordings from intact retinas and is well suited for quantitative investigation of mouse phototransduction ([48], [49], [50], [51], [52], [53]).
Ex vivo ERG recordings were conducted with isolated retinas of C57Bl/6J mice, as described ([41], [62], [63]). Mice were dark-adapted overnight and euthanized by CO2 asphyxiation, and whole retinas were dissected under dim red light. Before recordings, retinas were incubated for 5 h in Ames’ medium (Sigma-Aldrich) inside a light-tight box that was supplied with humidified 95% O2/5% CO2. For control retinas, 0.1% DMSO was added to the incubation medium, and for others, the incubation medium contained either 250 μM F2502-0030 (compound #1) or F5897-0190 (compound #7). These compounds were first dissolved in DMSO at 250 mM concentration, and 0.1% of this stock solution was added to the incubation medium (Ames’ medium). Stock solution was stored at −20 °C and used within a week. After incubation, retinas were placed on the ex vivo ERG specimen holder and perfused with Ames’ medium (saturated with 95% O2/5% CO2) at 1.5 ml/min at 35 °C. Ames’ medium was supplemented with 100 μM BaCl2 and 40 μM DL-AP4 (Tocris Bioscience) to isolate the photoreceptor component of the ERG signal. Responses were recorded to 5 ms flashes of light (630 nm) ranging from 276 to 308,534 photons μm^−2, corresponding to 1 to 1100 photons μm^−2 at 500 nm ([64]). Sensitivity of rod photoreceptors was determined in three ways: (1) sF = peak amplitude of dim flash response divided by flash energy (1 photon μm^−2); (2) SF = sF/Rmax, where Rmax is the maximal response amplitude measured at the plateau from a saturated rod response; (3) I1/2: flash energy required to elicit 50% of the Rmax determined by fitting a Naka-Rushton function to flash energy-amplitude data.

[5] = system: individual rod photoreceptors; assay: single-cell suction electrode recording from rod outer segments; type: cell-based, mouse (C57BL/6J); settings: long incubation time during sample preparation for single-cell recording
Protocol: Because it is possible that reduction of Rmax by compound #1 is due to some effect(s) on the rod photoreceptor inner segment currents that are not directly related to phototransduction ([51], [52]), we conducted also single-cell suction electrode recordings from the ROS from samples that were incubated either in the control medium or in the medium containing enhancer compound #1. The results from single cell recordings were similar to those obtained using ex vivo ERG: Rmax and fractional sensitivity were decreased from 12 (±0.4) to 9 (±0.3) pA and from 3.0 (±0.5) to 1.8 (±0.1)% per photon μm^−2, respectively, by rhodopsin dimerization–enhancing hit #1 (Fig. 6, A–C). Like the ex vivo ERG recordings, light response kinetics was not affected by compound #1 in the single-cell recordings (Fig. 6D).
Suction electrode recordings from individual rod photoreceptors of dark-adapted C57BL/6J mice were conducted as described previously ([65]). Before recordings, isolated retinas were incubated in the control medium (Ames’ medium + 0.1% DMSO) or in the hit compound–containing medium (Ames’ medium +250 μM F2502-0030 (#1)) as described above for ex vivo ERG experiments. After incubation, one half of the retina was chopped with a razor blade and transferred into a chamber where it was perfused at 1 ml/min with Ames’ medium saturated with 95% O2/5% CO2 at 35 °C. Recordings were made from a single ROS, using borosilicate glass electrodes with ∼1.5-μm opening (resistance ∼2 MΩ at 35 °C). The pipette solution was Hepes buffered Ames’ medium composed of 0.88 g Ames’ powder (A1420, Sigma-Aldrich), 0.357 g Hepes (Sigma-Aldrich), and 58.44 mg NaCl in […] distilled and vacuum-filtered water. The pH was adjusted to 7.4 with NaOH. Light responses were recorded to flashes of light ranging from 8 to 700 photons μm^−2 at 500 nm. For analysis, data were low-pass filtered using an 8-pole Bessel filter with cut-off frequency at 30 Hz.

## O=C(NCCc1ccsc1)c1cc(-c2ccco2)on1 [#2]
[1]
  EC50: 1.2 µM
[2]
  EC50: 4 µM

## O=C(Nc1ccc(CC(=O)N2CCC(O)CC2)cc1)c1cc(-c2ccco2)on1 [#3]
[3]
  light-induced increase in Trp265 intrinsic fluorescence vs DMSO-treated isorhodopsin: significantly quenched
  Meta II decay rate (slope of intrinsic fluorescence over 150 s) relative to DMSO control: statistically significant signal reduction
[1]
  EC50: 23.9 µM
[2]
  EC50: 7.87 µM

## Cc1c(C(=O)N(Cc2cccnc2)c2nc3c(F)cccc3s2)cnn1-c1ccccc1 [#9]
[3]
  Meta II decay rate (slope of intrinsic fluorescence over 150 s) relative to DMSO control: statistically significant signal reduction
[1]
  EC50: 10.5 µM
[2]
  EC50: 17.7 µM

## COc1ccc(S(=O)(=O)N(C(C)=O)c2cc3sc(=O)oc3c3ccccc23)cc1 [#5]
[1]
  EC50: 31.3 µM
[2]
  EC50: 5.53 µM

## O=C(CCCCn1c(=O)c2ccccc2n(Cc2ccccc2)c1=O)NCc1cccs1 [#4]
[1]
  effect on dimerization in the β-gal complementation assay: disrupted dimerization
[2]
  effect on dimerization in the BRET assay: enhanced dimerization

## Cc1onc(-c2ccccc2Cl)c1C(=O)Nc1cccc2ccc(-n3ccnc3)nc12 [#7]
[3]
  Meta II decay rate (slope of intrinsic fluorescence over 150 s) relative to DMSO control: statistically significant signal reduction
[4]
  effect on kinetics of rod light responses: marked deceleration of light responses
[4]; 5 h incubation, N = 4 retinas
  Rmax: 550 ± 40 μV
[4]; Fig. 5F
  half-saturating I1/2 from best-fitting Michaelis–Menten equation to mean normalized amplitudes: 34 photons μm^−2
[4]; N = 4
  SF (fractional sensitivity, sF/rmax): 4.0 ± 0.3 ^a %/photons∙μm^−2
  sF (absolute sensitivity): 18 ± 6 ^a μV/photons∙μm^−2
[4]; from individual retinas, N = 4
  I1/2: 35 ± 3 ^a photons∙μm^−2
[4]; time-to-peak of dim flash (1 photon μm^−2), N = 4
  tp: 910 ± 100 ^a ms
[5]
  damage to photoreceptor cells: caused damage to the photoreceptor cells

## CCOc1ccccc1-n1nnc(-c2nn3c(Cc4ccccc4)nnc3s2)c1C [#6]
[3]
  Meta II decay rate (slope of intrinsic fluorescence over 150 s) relative to DMSO control: statistically significant signal reduction
[1]
  EC50: 30 µM
[2]
  EC50: 13.6 µM

## NC(=O)c1oc2ccccc2c1NC(=O)c1ccc(Oc2ccccc2)cc1 [#8]
[3]
  Meta II decay rate (slope of intrinsic fluorescence over 150 s) relative to DMSO control: statistically significant signal reduction
[1]
  EC50: 16.5 µM
[2]
  EC50: 20.5 µM
